Source: ChEMBL document CHEMBL3763135, “Synthesis and evaluation of thiophene-based guanylhydrazones (iminoguanidines) efficient against panel of voriconazole-resistant fungal isolates” (Bioorg Med Chem, 2016)
Active and inactive are the calls of the source. The rule behind the calls is not given here.

Tests used:
Pichia kudriavzevii [1] = assay: Antibiofilm activity against Pichia kudriavzevii ATCC 34135 assessed as disruption of preformed biofilm after 24 hrs by concanavalin A-FITC-staining based fluorescence microscopic analysis; format: functional
Danio rerio [2] = organism: Danio rerio; assay: Toxicity against zebrafish embryo assessed as effect on notochord at 2.5 ug/ml measured at 96 hrs post fertilization by inverted microscopic analysis; format: organism-based; details: in vivo
Danio rerio [3] = organism: Danio rerio; assay: Toxicity against zebrafish embryo assessed as effect on otoliths at 5 ug/ml measured at 96 hrs post fertilization by inverted microscopic analysis; format: organism-based; details: in vivo
Danio rerio [4] = organism: Danio rerio; assay: Toxicity against zebrafish embryo assessed as normal embryos at 2.5 ug/ml measured at 96 hrs post fertilization by inverted microscopic analysis; format: organism-based; details: in vivo
[5] = system: Trichophyton mentagrophytes; assay: Antifungal activity against Trichophyton mentagrophytes DMT4 by broth dilution method; format: functional
Danio rerio [6] = assay: Toxicity against zebrafish embryo assessed as yolk edema at 10 ug/ml measured at 96 hrs post fertilization by inverted microscopic analysis; format: organism-based; details: in vivo
Danio rerio [7] = organism: Danio rerio; assay: Toxicity against zebrafish embryo assessed as effect on blood circulation at 10 ug/ml measured at 96 hrs post fertilization by inverted microscopic analysis; format: organism-based; details: in vivo
Candida albicans [8] = assay: Antifungal activity against Candida albicans CA5 by broth dilution method; format: functional
Danio rerio [9] = organism: Danio rerio; assay: Toxicity against zebrafish embryo assessed as effect on notochord at 5 ug/ml measured at 96 hrs post fertilization by inverted microscopic analysis; format: organism-based; details: in vivo
Candida albicans [10] = assay: Antifungal activity against Candida albicans ATCC 10231 by broth dilution method; format: functional
Candida parapsilosis [11] = assay: Antibiofilm activity against Candida parapsilosis C27 assessed as disruption of preformed biofilm after 24 hrs by concanavalin A-FITC-staining based fluorescence microscopic analysis; format: functional
Danio rerio [12] = organism: Danio rerio; assay: Toxicity against zebrafish embryo assessed as head malformation at 5 ug/ml measured at 96 hrs post fertilization by inverted microscopic analysis; format: organism-based; details: in vivo
Danio rerio [13] = organism: Danio rerio; assay: Toxicity against zebrafish embryo assessed as effect on eyes at 5 ug/ml measured at 96 hrs post fertilization by inverted microscopic analysis; format: organism-based; details: in vivo
[14] = Toxicity against zebrafish embryo measured at 96 hrs post fertilization by inverted microscopic analysis; format: organism-based, Danio rerio; details: zebrafish embryos
Danio rerio [15] = organism: Danio rerio; assay: Toxicity against zebrafish embryo assessed as head malformation at 2.5 ug/ml measured at 96 hrs post fertilization by inverted microscopic analysis; format: organism-based; details: in vivo
Danio rerio [16] = organism: Danio rerio; assay: Toxicity against zebrafish embryo assessed as head malformation at 10 ug/ml measured at 96 hrs post fertilization by inverted microscopic analysis; format: organism-based; details: in vivo
Candida albicans [17] = assay: Antibiofilm activity against Candida albicans assessed as inhibition of Spider medium-induced hyphae formation at sub-MIC after 24 hrs by propidium iodide and FITC-conjugated concanavaline A staining based fluorescence microscopy; format: functional, organism-based
Danio rerio [18] = organism: Danio rerio; assay: Toxicity against zebrafish embryo assessed as unhatched embryos at 5 ug/ml measured at 96 hrs post fertilization by inverted microscopic analysis; format: organism-based; details: in vivo
Danio rerio [19] = organism: Danio rerio; assay: Toxicity against zebrafish embryo assessed as effect on otoliths at 10 ug/ml measured at 96 hrs post fertilization by inverted microscopic analysis; format: organism-based; details: in vivo
Danio rerio [20] = organism: Danio rerio; assay: Toxicity against zebrafish embryo assessed as effect on tail tip at 5 ug/ml measured at 96 hrs post fertilization by inverted microscopic analysis; format: organism-based; details: in vivo
Danio rerio [21] = organism: Danio rerio; assay: Toxicity against zebrafish embryo assessed as skeletal deformities at 5 ug/ml measured at 96 hrs post fertilization by inverted microscopic analysis; format: organism-based; details: in vivo
Danio rerio [22] = organism: Danio rerio; assay: Toxicity against zebrafish embryo assessed as growth retardation at 2.5 ug/ml measured at 96 hrs post fertilization by inverted microscopic analysis; format: organism-based; details: in vivo
Danio rerio [23] = organism: Danio rerio; assay: Toxicity against zebrafish embryo assessed as skeletal deformities at 2.5 ug/ml measured at 96 hrs post fertilization by inverted microscopic analysis; format: organism-based; details: in vivo
Pichia kudriavzevii [24] = assay: Antifungal activity against Candida krusei ATCC 34135 by broth dilution method; format: functional
Danio rerio [25] = assay: Toxicity against zebrafish embryo assessed as yolk edema at 2.5 ug/ml measured at 96 hrs post fertilization by inverted microscopic analysis; format: organism-based; details: in vivo
Danio rerio [26] = organism: Danio rerio; assay: Toxicity against zebrafish embryo assessed as effect on otoliths at 2.5 ug/ml measured at 96 hrs post fertilization by inverted microscopic analysis; format: organism-based; details: in vivo
[27] = Toxicity against zebrafish embryo assessed as dead embryos at 2.5 ug/ml measured at 96 hrs post fertilization by inverted microscopic analysis; format: organism-based, Danio rerio; details: read-out: Activity
Danio rerio [28] = organism: Danio rerio; assay: Toxicity against zebrafish embryo assessed as normal embryos at 50 ug/ml measured at 96 hrs post fertilization by inverted microscopic analysis; format: organism-based; details: in vivo
Candida albicans [29] = assay: Induction of DNA intercalation with Candida albicans genomic DNA at 25 ug/ml after 12 hrs by ethidium bromide staining based gel electrophoresis method
Danio rerio [30] = assay: Toxicity against zebrafish embryo assessed as pericardial edema at 10 ug/ml measured at 96 hrs post fertilization by inverted microscopic analysis; format: organism-based; details: in vivo
Danio rerio [31] = organism: Danio rerio; assay: Toxicity against zebrafish embryo assessed as skeletal deformities at 10 ug/ml measured at 96 hrs post fertilization by inverted microscopic analysis; format: organism-based; details: in vivo
Danio rerio [32] = organism: Danio rerio; assay: Toxicity against zebrafish embryo assessed as teratogenic embryos at 50 ug/ml measured at 96 hrs post fertilization by inverted microscopic analysis; format: organism-based; details: in vivo
[33] = Toxicity against zebrafish embryo assessed as dead embryos at 10 ug/ml measured at 96 hrs post fertilization by inverted microscopic analysis; format: organism-based, Danio rerio; details: read-out: Activity
Danio rerio [34] = assay: Toxicity against zebrafish embryo assessed as pericardial edema at 5 ug/ml measured at 96 hrs post fertilization by inverted microscopic analysis; format: organism-based; details: in vivo
Danio rerio [35] = organism: Danio rerio; assay: Toxicity against zebrafish embryo assessed as unhatched embryos at 2.5 ug/ml measured at 96 hrs post fertilization by inverted microscopic analysis; format: organism-based; details: in vivo
Danio rerio [36] = organism: Danio rerio; assay: Toxicity against zebrafish embryo assessed as normal embryos at 25 ug/ml measured at 96 hrs post fertilization by inverted microscopic analysis; format: organism-based; details: in vivo
Danio rerio [37] = organism: Danio rerio; assay: Toxicity against zebrafish embryo assessed as growth retardation at 10 ug/ml measured at 96 hrs post fertilization by inverted microscopic analysis; format: organism-based; details: in vivo
Danio rerio [38] = organism: Danio rerio; assay: Toxicity against zebrafish embryo assessed as effect on blood circulation at 2.5 ug/ml measured at 96 hrs post fertilization by inverted microscopic analysis; format: organism-based; details: in vivo
Danio rerio [39] = organism: Danio rerio; assay: Toxicity against zebrafish embryo assessed as teratogenic embryos at 2.5 ug/ml measured at 96 hrs post fertilization by inverted microscopic analysis; format: organism-based; details: in vivo
[40] = Toxicity against zebrafish embryo assessed as dead embryos at 25 ug/ml measured at 96 hrs post fertilization by inverted microscopic analysis; format: organism-based, Danio rerio; details: read-out: Activity
Danio rerio [41] = organism: Danio rerio; assay: Toxicity against zebrafish embryo assessed as effect on notochord at 10 ug/ml measured at 96 hrs post fertilization by inverted microscopic analysis; format: organism-based; details: in vivo
MRC5 = assay: Cytotoxicity against human MRC5 cells after 48 hrs by MTT assay; format: cell-based; details: MRC5, 48 h
Danio rerio [42] = organism: Danio rerio; assay: Toxicity against zebrafish embryo assessed as unhatched embryos at 10 ug/ml measured at 96 hrs post fertilization by inverted microscopic analysis; format: organism-based; details: in vivo
Fusarium oxysporum = assay: Antifungal activity against Fusarium oxysporum AB18 by broth dilution method; format: functional
[43] = Toxicity against zebrafish embryo assessed as dead embryos at 50 ug/ml measured at 96 hrs post fertilization by inverted microscopic analysis; format: organism-based, Danio rerio; details: read-out: Activity
[44] = Induction of membrane damage in PC/PS/E liposome assessed as calcein release at MIC after 30 mins by fluorescence-based liposome leakage assay; format: functional
Danio rerio [45] = organism: Danio rerio; assay: Toxicity against zebrafish embryo assessed as effect on blood circulation at 5 ug/ml measured at 96 hrs post fertilization by inverted microscopic analysis; format: organism-based; details: in vivo
Candida parapsilosis [46] = assay: Antifungal activity against Candida parapsilosis C27 by broth dilution method; format: functional; details: Lodderomyces parapsilosis

Q: For Cl.Cl.N=C(N)N/N=C/c1ccc(-c2ccc(/C=N/NC(=N)N)s2)cc1, which MBEC (Pichia kudriavzevii [1]) is on record?
A: 500 µg/mL

Q: And the Activity (Danio rerio [2])?
A: 0%

Q: What about the Activity (Danio rerio [3]) of the same compound?
A: 0%

Q: And the Activity (Danio rerio [4])?
A: 100%

Q: And the MIC [5]?
A: 3.9 µg/mL

Q: What about the Activity (Danio rerio [6]) of the same compound?
A: 0%

Q: And the Activity (Danio rerio [7])?
A: 0%

Q: And the MIC (Candida albicans [8])?
A: 0.5 µg/mL

Q: And the Activity (Danio rerio [9])?
A: 0%

Q: And the MIC (Candida albicans [10])?
A: 3.9 µg/mL

Q: What about the MBEC (Candida parapsilosis [11]) of the same compound?
A: 500 µg/mL

Q: What about the Activity (Danio rerio [12]) of the same compound?
A: 0%

Q: And the Activity (Danio rerio [13])?
A: 0%

Q: What about the LC50 at 96 h [14] of the same compound?
A: > 50 µg/mL

Q: And the Activity (Danio rerio [15])?
A: 0%

Q: What about the Activity (Danio rerio [16]) of the same compound?
A: 0%

Q: What about the Activity (Candida albicans [17]) of the same compound?
A: Active

Q: And the Activity (Danio rerio [18])?
A: 0%

Q: And the Activity (Danio rerio [19])?
A: 0%

Q: And the Activity (Danio rerio [20])?
A: 0%

Q: And the Activity (Danio rerio [21])?
A: 0%

Q: What about the Activity (Danio rerio [22]) of the same compound?
A: 0%

Q: And the Activity (Danio rerio [23])?
A: 0%

Q: What about the MIC (Pichia kudriavzevii [24]) of the same compound?
A: 25 µg/mL

Q: What about the Activity (Danio rerio [25]) of the same compound?
A: 0%

Q: What about the Activity (Danio rerio [26]) of the same compound?
A: 0%

Q: And the mortality at 96 h, 2.5 ug/ml [27]?
A: 0%

Q: What about the Activity (Danio rerio [28]) of the same compound?
A: 96.67%

Q: And the Activity (Candida albicans [29])?
A: Active

Q: What about the Activity (Danio rerio [30]) of the same compound?
A: 0%

Q: And the Activity (Danio rerio [31])?
A: 0%

Q: And the Activity (Danio rerio [32])?
A: 0%

Q: What about the mortality at 96 h, 10 ug/ml [33] of the same compound?
A: 0%

Q: And the Activity (Danio rerio [34])?
A: 0%

Q: What about the Activity (Danio rerio [35]) of the same compound?
A: 0%

Q: What about the Activity (Danio rerio [36]) of the same compound?
A: 96.67%

Q: And the Activity (Danio rerio [37])?
A: 0%

Q: And the Activity (Danio rerio [38])?
A: 0%

Q: What about the Activity (Danio rerio [39]) of the same compound?
A: 0%

Q: And the mortality at 96 h, 25 ug/ml [40]?
A: 3.33%

Q: What about the Activity (Danio rerio [41]) of the same compound?
A: 0%

Q: What about the IC50 (MRC5) of the same compound?
A: 10 µg/mL

Q: What about the Activity (Danio rerio [42]) of the same compound?
A: 0%

Q: And the MIC (Fusarium oxysporum)?
A: > 250 µg/mL

Q: What about the mortality at 96 h, 50 ug/ml [43] of the same compound?
A: 3.33%

Q: And the Activity [44]?
A: 7%

Q: What about the Activity (Danio rerio [45]) of the same compound?
A: 0%

Q: What about the MIC (Candida parapsilosis [46]) of the same compound?
A: 50 µg/mL
